Assay results as given in patent US6355799B1, “Substituted benzene compounds, process for their preparation, and herbicidal and defoliant compositions containing them” (ISK Americas Incorporated, priority 1997, dated 2002).

What was measured:
Assay type in all cases: in vivo
[1] = tested on: redroot pigweed (Amaranthus retroflexus, AMARE); test: Pre-emerge test, greenhouse herbicide activity screening; conditions: rating scale 0-100, 14 days after application
Outline: (§1)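 Plants grown in 10 cm pots of sandy loam mix received acetone-dissolved compounds through a moving flat-fan nozzle. Doses ranged from 15 to 1000 g ai/ha. Pre-emerge pots were seeded one day earlier, post-emerge pots 8–21 days earlier. Fourteen days on, each pot was graded 0–100 for damage.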

[2] = tested on: barnyardgrass (Echinochloa crus-galli, ECHCG); test: as above; conditions: rating scale 0-100, 14 days after application
Outline: (§2)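 Visual ratings on a 0-100 scale (0 no damage, 100 all plants dead) were taken at 14 days after treatment. Rates of 15-1000 g ai/ha in acetone, 187 l/ha, were sprayed onto soil one day after planting (pre-emerge) or onto 2-3 leaf plants with 0.25% v/v surfactant (post-emerge).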

[3] = tested on: green foxtail (Setaria viridis, SETVI); test: as above; conditions: rating scale 0-100, 14 days after application
Outline: as §2

[4] = tested on: ivyleaf morningglory (Ipomoea hederacea, IPOHE); test: as above; conditions: rating scale 0-100, 14 days after application
Outline: as §2

[5] = tested on: johnsongrass (Sorghum halepense, SORHA); test: as above; conditions: rating scale 0-100, 14 days after application
Outline: as §2

[6] = tested on: lambsquarters (Chenopodium album, CHEAL); test: as above; conditions: rating scale 0-100, 14 days after application
Outline: as §2

[7] = tested on: large crabgrass (Digitaria sanguinalis, DIGSA); test: as above; conditions: rating scale 0-100, 14 days after application
Outline: as §2

[8] = tested on: sicklepod (Cassia obtusifolia, CASOB); test: as above; conditions: rating scale 0-100, 14 days after application
Outline: as §2

[9] = tested on: velvetleaf (Abutilon theophrasti, ABUTH); test: as above; conditions: rating scale 0-100, 14 days after application
Outline: as §2

[10] = tested on: field corn (Zea mays L., var. Dekalb 535, CORN); test: Pre-emerge test, crop safety; conditions: rating scale 0-100, 14 days after application
Outline: as §1

[11] = tested on: upland rice (Oryza sp., var. Tebonnet, RICE); test: Pre-emerge test, crop safety; conditions: rating scale 0-100, 14 days after application
Outline: as §1

[12] = tested on: barnyardgrass (Echinochloa crus-galli, ECHCG); test: Post-emerge test, greenhouse herbicide activity screening; conditions: rating scale 0-100 (0 no damage, 100 complete death), 14 days after application
Outline: (§3)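 Rating: 0–100 visual injury, 14 DAA. Application: acetone, 187 l/ha, 15–1000 g ai/ha, flat-fan track sprayer with nozzle 40–45 cm above soil or canopy. Post-emerge runs used 0.25% v/v surfactant on 2–3 leaf plants.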

[13] = tested on: common ragweed (Ambrosia artemisizfolia L., AMBEL); test: as above; conditions: rating scale 0-100 (0 no damage, 100 complete death), 14 days after application
Outline: as §3

[14] = tested on: green foxtail (Setaria viridis, SETVI); test: as above; conditions: rating scale 0-100 (0 no damage, 100 complete death), 14 days after application
Outline: as §3

[15] = tested on: ivyleaf morningglory (Ipomoea hederacea, IPOHE); test: as above; conditions: rating scale 0-100 (0 no damage, 100 complete death), 14 days after application
Outline: as §3

[16] = tested on: johnsongrass (Sorghum halepense, SORHA); test: as above; conditions: rating scale 0-100 (0 no damage, 100 complete death), 14 days after application
Outline: as §3

[17] = tested on: lambsquarters (Chenopodium album, CHEAL); test: as above; conditions: rating scale 0-100 (0 no damage, 100 complete death), 14 days after application
Outline: as §3

[18] = tested on: large crabgrass (Digitaria sanguinalis, DIGSA); test: as above; conditions: rating scale 0-100 (0 no damage, 100 complete death), 14 days after application
Outline: as §3

[19] = tested on: redroot pigweed (Amaranthus retroflexus, AMARE); test: as above; conditions: rating scale 0-100 (0 no damage, 100 complete death), 14 days after application
Outline: as §3

[20] = tested on: sicklepod (Cassia obtusifolia, CASOB); test: as above; conditions: rating scale 0-100 (0 no damage, 100 complete death), 14 days after application
Outline: as §3

[21] = tested on: velvetleaf (Abutilon theophrasti, ABUTH); test: as above; conditions: rating scale 0-100 (0 no damage, 100 complete death), 14 days after application
Outline: as §3

[22] = tested on: field corn (Zea mays L., var. Dekalb 535, CORN); test: Post-emerge test, crop safety; conditions: rating scale 0-100 (0 no damage, 100 complete death), 14 days after application
Outline: as §2

[23] = tested on: upland rice (Oryza sp., var. Tebonnet, RICE); test: Post-emerge test, crop safety; conditions: rating scale 0-100 (0 no damage, 100 complete death), 14 days after application
Outline: as §2

CCOC(=O)C(Br)Cc1c(OC)c(Cl)cc(F)c1-n1c(=O)cc(C(F)(F)F)n(C)c1=O (single isomer, unassigned) [14-33]
Pre-emerge herbicidal activity, phytotoxicity rating AMARE ([1]; 63 g ai/ha): 100
Pre-emerge herbicidal activity, phytotoxicity rating AMARE ([1]; 250 g ai/ha): 100
Pre-emerge herbicidal activity, phytotoxicity rating ECHCG ([2]; 63 g ai/ha): 0
Pre-emerge herbicidal activity, phytotoxicity rating ECHCG ([2]; 250 g ai/ha): 0
Pre-emerge herbicidal activity, phytotoxicity rating SETVI ([3]; 63 g ai/ha): 0
Pre-emerge herbicidal activity, phytotoxicity rating SETVI ([3]; 250 g ai/ha): 50
Pre-emerge herbicidal activity, phytotoxicity rating IPOHE ([4]; 63 g ai/ha): 0
Pre-emerge herbicidal activity, phytotoxicity rating IPOHE ([4]; 250 g ai/ha): 0
Pre-emerge herbicidal activity, phytotoxicity rating SORHA ([5]; 63 g ai/ha): 0
Pre-emerge herbicidal activity, phytotoxicity rating SORHA ([5]; 250 g ai/ha): 30
Pre-emerge herbicidal activity, phytotoxicity rating CHEAL ([6]; 63 g ai/ha): 0
Pre-emerge herbicidal activity, phytotoxicity rating CHEAL ([6]; 250 g ai/ha): 90
Pre-emerge herbicidal activity, phytotoxicity rating DIGSA ([7]; 63 g ai/ha): 0
Pre-emerge herbicidal activity, phytotoxicity rating DIGSA ([7]; 250 g ai/ha): 99
Pre-emerge herbicidal activity, phytotoxicity rating CASOB ([8]; 63 g ai/ha): 0
Pre-emerge herbicidal activity, phytotoxicity rating CASOB ([8]; 250 g ai/ha): 0
Pre-emerge herbicidal activity, phytotoxicity rating ABUTH ([9]; 63 g ai/ha): 20
Pre-emerge herbicidal activity, phytotoxicity rating ABUTH ([9]; 250 g ai/ha): 90
Pre-emerge phytotoxicity rating, crop damage CORN ([10]; 63 g ai/ha): 10
Pre-emerge phytotoxicity rating, crop damage CORN ([10]; 250 g ai/ha): 20
Pre-emerge phytotoxicity rating, crop damage RICE ([11]; 63 g ai/ha): 0
Pre-emerge phytotoxicity rating, crop damage RICE ([11]; 250 g ai/ha): 10
Post-emerge Herbicidal Activity, phytotoxicity rating ECHCG ([12]; Rate 63 g ai/ha): 100
Post-emerge Herbicidal Activity, phytotoxicity rating ECHCG ([12]; Rate 250 g ai/ha): 100
Post-emerge Herbicidal Activity, phytotoxicity rating AMBEL ([13]; Rate 63 g ai/ha): 0
Post-emerge Herbicidal Activity, phytotoxicity rating AMBEL ([13]; Rate 250 g ai/ha): 100
Post-emerge Herbicidal Activity, phytotoxicity rating SETVI ([14]; Rate 63 g ai/ha): 40
Post-emerge Herbicidal Activity, phytotoxicity rating SETVI ([14]; Rate 250 g ai/ha): 90
Post-emerge Herbicidal Activity, phytotoxicity rating IPOHE ([15]; Rate 63 g ai/ha): 20
Post-emerge Herbicidal Activity, phytotoxicity rating IPOHE ([15]; Rate 250 g ai/ha): 20
Post-emerge Herbicidal Activity, phytotoxicity rating SORHA ([16]; Rate 63 g ai/ha): 10
Post-emerge Herbicidal Activity, phytotoxicity rating SORHA ([16]; Rate 250 g ai/ha): 95
Post-emerge Herbicidal Activity, phytotoxicity rating CHEAL ([17]; Rate 63 g ai/ha): 20
Post-emerge Herbicidal Activity, phytotoxicity rating CHEAL ([17]; Rate 250 g ai/ha): 70
Post-emerge Herbicidal Activity, phytotoxicity rating DIGSA ([18]; Rate 63 g ai/ha): 70
Post-emerge Herbicidal Activity, phytotoxicity rating DIGSA ([18]; Rate 250 g ai/ha): 100
Post-emerge Herbicidal Activity, phytotoxicity rating AMARE ([19]; Rate 63 g ai/ha): 100
Post-emerge Herbicidal Activity, phytotoxicity rating AMARE ([19]; Rate 250 g ai/ha): 100
Post-emerge Herbicidal Activity, phytotoxicity rating CASOB ([20]; Rate 63 g ai/ha): 0
Post-emerge Herbicidal Activity, phytotoxicity rating CASOB ([20]; Rate 250 g ai/ha): 0
Post-emerge Herbicidal Activity, phytotoxicity rating ABUTH ([21]; Rate 63 g ai/ha): 90
Post-emerge Herbicidal Activity, phytotoxicity rating ABUTH ([21]; Rate 250 g ai/ha): 100
Post-emerge phytotoxicity rating CORN (crop damage) ([22]; Rate 63 g ai/ha): 10
Post-emerge phytotoxicity rating CORN (crop damage) ([22]; Rate 250 g ai/ha): 95
Post-emerge phytotoxicity rating RICE (crop damage) ([23]; Rate 63 g ai/ha): 0
Post-emerge phytotoxicity rating RICE (crop damage) ([23]; Rate 250 g ai/ha): 0
